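Five compound concentrations were applied to cells in 96-well plates for 48 hours; endpoints were derived by simple linear interpolation of the resulting dose-response curve. Abbreviation: GI50, concentration required for 50% inhibition of growth.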 The source made the active and inactive calls. Rule as the data show it: active = GI50 up to about 1.1 µM and inactive = higher.
Tests used:
Experiment in all cases: DTP human tumour cell line panel, 48 h
786-0 = tested on: 786-0
HCT-116 = tested on: HCT-116
HCT-15 = tested on: HCT-15
HL-60 = tested on: HL-60
HT-29 = tested on: HT-29
Hs-578T = tested on: Hs-578T
IGROV-1 = tested on: IGROV-1
MCF7 = tested on: MCF7
NCI-H226 = tested on: NCI-H226
NCI-H23 = tested on: NCI-H23
NCI-H522 = tested on: NCI-H522
OVCAR-3 = tested on: OVCAR-3
SF-295 = tested on: SF-295
SF-539 = tested on: SF-539
SK-MEL-28 = tested on: SK-MEL-28
SK-MEL-2 = tested on: SK-MEL-2
SNB-75 = tested on: SNB-75
SW-620 = tested on: SW-620
TK-10 = tested on: TK-10
UACC-257 = tested on: UACC-257

| SMILES | GI50 (786-0) | GI50 (HCT-116) | GI50 (HCT-15) | GI50 (HL-60) | GI50 (HT-29) | GI50 (Hs-578T) | GI50 (IGROV-1) | GI50 (MCF7) | GI50 (NCI-H226) | GI50 (NCI-H23) | GI50 (NCI-H522) | GI50 (OVCAR-3) | GI50 (SF-295) | GI50 (SF-539) | GI50 (SK-MEL-28) | GI50 (SK-MEL-2) | GI50 (SNB-75) | GI50 (SW-620) | GI50 (TK-10) | GI50 (UACC-257) |
| --- | --- | --- | --- | --- | --- | --- | --- | --- | --- | --- | --- | --- | --- | --- | --- | --- | --- | --- | --- | --- |
| COc1ccc(-c2cc(=O)c3c(O)cc(O)cc3o2)cc1OC | 68.9 µM (inactive) | 28.2 µM (inactive) | > 100 µM | 39.9 µM (inactive) | 81.8 µM (inactive) | 11.5 µM (inactive) | 92 µM (inactive) | > 100 µM (inactive) | > 100 µM (inactive) | > 100 µM (inactive) | 16.7 µM (inactive) | 46 µM (inactive) | 44.8 µM (inactive) | 18.4 µM (inactive) | > 100 µM (inactive) | > 100 µM (inactive) | 4.69 µM (inactive) | > 100 µM (inactive) | > 100 µM (inactive) | > 100 µM (inactive) |
| C=CCC1(O)c2cccc(O)c2C(=O)c2cccc(O)c21 (stereo not given) | 19.3 µM (inactive) | 14.4 µM (inactive) | 12.2 µM | 11.7 µM (inactive) | 22.1 µM (inactive) | 14.9 µM (inactive) | 23.6 µM (inactive) | 19.6 µM (inactive) | 22.3 µM (inactive) | 8.09 µM (inactive) | 9.86 µM (inactive) | 12.3 µM (inactive) | 9.35 µM (inactive) | 31.8 µM (inactive) | 20.5 µM (inactive) | 12 µM (inactive) | 13.2 µM (inactive) | 25.2 µM (inactive) | 23.5 µM (inactive) | 13 µM (inactive) |
| O=[N+]([O-])c1ccc(-n2nc3ccc4c(no[n+]4[O-])c3[n+]2[O-])c([N+](=O)[O-])c1 | 2.68 µM (inactive) | 1.91 µM (inactive) | 2.69 µM | 1.95 µM (inactive) | 4.69 µM (inactive) | 2.81 µM (inactive) | 1.71 µM (inactive) | 1.9 µM (inactive) | 8.24 µM (inactive) | 2.19 µM (inactive) | 1.72 µM (inactive) | 2.47 µM (inactive) | 4.53 µM (inactive) | 6.15 µM (inactive) | 2.51 µM (inactive) | 3.56 µM (inactive) | 8.81 µM (inactive) | 2.1 µM (inactive) | 2.86 µM (inactive) | 1.75 µM (inactive) |
| O=C1Nc2ccccc2/C1=N/Nc1nc(-c2cccc([N+](=O)[O-])c2)cs1 | 16.3 µM (inactive) | 19.2 µM (inactive) | 21.8 µM | 25.1 µM (inactive) | 17.7 µM (inactive) | 20.1 µM (inactive) | 21.6 µM (inactive) | 23.9 µM (inactive) | 19.2 µM (inactive) | 36.4 µM (inactive) | 20.1 µM (inactive) | 34.8 µM (inactive) | 20.7 µM (inactive) | 24 µM (inactive) | 19.5 µM (inactive) | 31.5 µM (inactive) | 20.3 µM (inactive) | 36.8 µM (inactive) | 19 µM (inactive) | 19.3 µM (inactive) |
| CS(=O)(=O)OCCCCOS(C)(=O)=O [BUSULFAN] | 228 µM (inactive) | 238 µM (inactive) | 219 µM | 125 µM (inactive) | 247 µM (inactive) | > 250 µM (inactive) | > 212 µM (inactive) | 213 µM (inactive) | 237 µM (inactive) | 230 µM (inactive) | 239 µM (inactive) | > 250 µM (inactive) | 210 µM (inactive) | 233 µM (inactive) | 203 µM (inactive) | 248 µM (inactive) | 144 µM (inactive) | 224 µM (inactive) | > 250 µM (inactive) | 183 µM (inactive) |
| O=C(CCc1ccc(O)c(O)c1)NCCc1cc(OCc2ccccc2)cc(OCc2ccccc2)c1 | 13.3 µM (inactive) | 11.8 µM (inactive) | 3.03 µM | 2.51 µM (inactive) | 10.1 µM (inactive) | 9.29 µM (inactive) | 5.93 µM (inactive) | 12 µM (inactive) | 20.1 µM (inactive) | 14.1 µM (inactive) | 1.79 µM (inactive) | 5.92 µM (inactive) | 18.1 µM (inactive) | 11.7 µM (inactive) | 10.8 µM (inactive) | 17.9 µM (inactive) | 4.98 µM (inactive) | 7.1 µM (inactive) | 16.3 µM (inactive) | 28.1 µM (inactive) |
| O=S(=O)(c1cccc(C(F)(F)F)c1)N1c2ccccc2-n2cccc2C1c1cccnc1 (stereo not given) | > 40.6 µM (inactive) | 18.8 µM (inactive) | 22 µM | 1.1 µM (active) | 18.1 µM (inactive) | > 47 µM (inactive) | 40.6 µM (inactive) | 13.9 µM (inactive) | > 28.1 µM (inactive) | 8.49 µM (inactive) | 15.4 µM (inactive) | > 35.8 µM (inactive) | 71.8 µM (inactive) | 28 µM (inactive) | 29.4 µM (inactive) | 17.7 µM (inactive) | 61.9 µM (inactive) | 16.5 µM (inactive) | > 53.8 µM (inactive) | > 36.4 µM (inactive) |
| CC(C(O)c1ccccc1)[N+](=O)[O-] (stereo not given) | 6.93 µM (inactive) | 37.6 µM (inactive) | 11.5 µM | 4.79 µM (inactive) | 27.2 µM (inactive) | 28.2 µM (inactive) | 14.8 µM (inactive) | 3.64 µM (inactive) | 24.4 µM (inactive) | 32.8 µM (inactive) | 8.71 µM (inactive) | 4.91 µM (inactive) | 28.5 µM (inactive) | 20.3 µM (inactive) | 19.8 µM (inactive) | 19.5 µM (inactive) | 40.6 µM (inactive) | 8.81 µM (inactive) | 28.6 µM (inactive) | 16.8 µM (inactive) |
| COc1cc2c(cc1OC)C(c1ccccc1CCCCl)=NCC2 | > 100 µM (inactive) | 45.9 µM (inactive) | > 100 µM | 28.8 µM (inactive) | 44.2 µM (inactive) | 69 µM (inactive) | 33.9 µM (inactive) | 95.5 µM (inactive) | 80.4 µM (inactive) | 42.5 µM (inactive) | 20.8 µM (inactive) | > 100 µM (inactive) | 68.7 µM (inactive) | > 100 µM (inactive) | 19.1 µM (inactive) | > 100 µM (inactive) | 75.3 µM (inactive) | 25.6 µM (inactive) | > 100 µM (inactive) | 53.1 µM (inactive) |
| CN(C)c1nc(N)c(C#N)c(C#N)c1C#N | > 7.16 µM (inactive) | > 10 µM (inactive) | > 10 µM | 2.21 µM (inactive) | > 10 µM (inactive) | > 10 µM (inactive) | > 6 µM (inactive) | > 10 µM (inactive) | > 10 µM (inactive) | > 7.46 µM (inactive) | 1.87 µM (inactive) | > 10 µM (inactive) | > 10 µM (inactive) | > 10 µM (inactive) | > 10 µM (inactive) | > 10 µM (inactive) | 9.68 µM (inactive) | 8.73 µM (inactive) | > 10 µM (inactive) | > 10 µM (inactive) |

Source: ChEMBL document CHEMBL1201862, “PubChem BioAssay data set” (2004)
